Experimental data published in ChEMBL document CHEMBL3393018, “Multimodal biopanning of T7 phage-displayed peptides reveals angiomotin as a potential receptor of the anti-angiogenic macrolide Roxithromycin” (Eur J Med Chem, 2015).
Calls of active or inactive are those of the source. The calls are words filed in the database; no cut-off is given here.

What was measured:
[1] = target: T1, Angiomotin (Homo sapiens) (UniProt Q4VCS5); test: Binding affinity to recombinant GST-tagged Amot (H343 to I675 residues) (unknown origin) expressed in Escherichia coli at 25 uM using Amot immobilized on gold electrode of QCM sensor chip by […] biosensor-based assay
T1 sequence (whole entry): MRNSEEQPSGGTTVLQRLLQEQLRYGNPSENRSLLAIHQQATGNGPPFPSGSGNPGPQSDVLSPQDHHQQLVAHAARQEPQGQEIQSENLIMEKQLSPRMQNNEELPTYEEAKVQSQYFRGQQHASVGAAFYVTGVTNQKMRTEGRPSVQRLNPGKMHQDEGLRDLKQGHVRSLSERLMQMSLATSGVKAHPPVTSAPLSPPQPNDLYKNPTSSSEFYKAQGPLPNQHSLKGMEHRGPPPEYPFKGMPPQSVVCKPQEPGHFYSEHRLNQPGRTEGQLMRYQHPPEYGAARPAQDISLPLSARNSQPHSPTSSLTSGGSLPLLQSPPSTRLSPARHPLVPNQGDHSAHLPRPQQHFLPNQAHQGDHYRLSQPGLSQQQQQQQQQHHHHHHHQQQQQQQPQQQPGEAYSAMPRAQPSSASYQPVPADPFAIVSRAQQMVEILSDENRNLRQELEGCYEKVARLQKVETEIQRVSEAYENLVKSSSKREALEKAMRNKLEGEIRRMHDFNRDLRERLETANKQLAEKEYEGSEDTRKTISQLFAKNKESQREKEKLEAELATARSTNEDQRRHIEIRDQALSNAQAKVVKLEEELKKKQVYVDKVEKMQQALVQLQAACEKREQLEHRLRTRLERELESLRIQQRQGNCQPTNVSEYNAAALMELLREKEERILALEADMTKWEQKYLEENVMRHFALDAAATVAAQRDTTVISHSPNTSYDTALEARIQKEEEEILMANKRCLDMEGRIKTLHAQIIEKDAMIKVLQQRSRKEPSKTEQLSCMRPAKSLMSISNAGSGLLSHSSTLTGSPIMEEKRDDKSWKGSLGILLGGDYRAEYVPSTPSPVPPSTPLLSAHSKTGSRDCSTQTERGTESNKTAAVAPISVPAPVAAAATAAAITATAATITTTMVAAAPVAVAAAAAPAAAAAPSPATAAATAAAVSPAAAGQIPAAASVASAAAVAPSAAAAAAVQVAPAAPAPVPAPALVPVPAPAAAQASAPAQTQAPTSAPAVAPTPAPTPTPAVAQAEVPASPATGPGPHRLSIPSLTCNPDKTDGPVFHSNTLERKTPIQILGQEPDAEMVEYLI

[2] = target: T1, Angiomotin (Homo sapiens); test: Binding affinity to recombinant GST-tagged Amot (H343 to I675 residues) (unknown origin) expressed in Escherichia coli at 50 uM using Amot immobilized on gold electrode of QCM sensor chip by […] biosensor-based assay
HUVEC = test: Inhibition of cell proliferation of HUVEC at 12.5 to 200 uM after 72 hrs by MTS assay; format: functional, cell-based; details: Homo sapiens

Activity [1]: Active | Activity [2]: Active
Compound: CC[C@H]1OC(=O)[C@H](C)[C@@H](O[C@H]2C[C@@](C)(OC)[C@@H](O)[C@H](C)O2)[C@H](C)[C@@H](O[C@@H]2O[C@H](C)C[C@H](N(C)C)[C@H]2O)[C@](C)(O)C[C@@H](C)/C(=N\OCOCCOC)[C@H](C)[C@@H](O)[C@]1(C)O [ROXITHROMYCIN]
IC50 (HUVEC): 100 µM
